Results from the NIST ThermoML archive (doi:10.1021/acs.jced.8b00403).
± gives the expanded uncertainty stated by the source.

Assay: wn = mass fraction of the nth substance listed
Conditions: 101.33 kPa, Liquid; for viscosity: Concentric cylinders viscometry; for mass density: Vibrating tube method

OCCCO [propan-1,3-diol] + O
Conditions | mass density [kg/m3] | viscosity [mPa·s]
253.15 K, w1 = 0.4453 | 1053.7 ± 8 | 40.11 ± 12
253.15 K, w1 = 0.501 | 1058 ± 8 | 49.09 ± 15
253.15 K, w1 = 0.6123 | 1068.2 ± 8 | 85.87 ± 26
253.15 K, w1 = 0.7236 | 1074.9 ± 8 | 158.67 ± 48
253.15 K, w1 = 0.8349 | 1078.5 ± 8 | 267.81 ± 81
253.15 K, w1 = 0.9277 | 1079.6 ± 8 | 418.56 ± 130
253.15 K, w1 = 1 | 1078.2 ± 8 | 574.39 ± 170
258.15 K, w1 = 0.4453 | 1051.8 ± 8 | 29.02 ± 8.7
258.15 K, w1 = 0.501 | 1055.9 ± 8 | 35.24 ± 11
258.15 K, w1 = 0.6123 | 1065.8 ± 8 | 63.15 ± 19
258.15 K, w1 = 0.7236 | 1072.2 ± 8 | 110.64 ± 33
258.15 K, w1 = 0.8349 | 1075.5 ± 8 | 184.18 ± 55
258.15 K, w1 = 0.9277 | 1076.5 ± 8 | 293.3 ± 88
258.15 K, w1 = 1 | 1075.4 ± 8 | 409.88 ± 120
263.15 K, w1 = 0.334 | 1035.2 ± 8 | 12.02 ± 3.6
263.15 K, w1 = 0.4453 | 1047.7 ± 8 | 19.91 ± 6
263.15 K, w1 = 0.501 | 1052.5 ± 8 | 24.97 ± 7.5
263.15 K, w1 = 0.6123 | 1062.1 ± 8 | 44.2 ± 13
263.15 K, w1 = 0.7236 | 1068.4 ± 8 | 76.18 ± 23
263.15 K, w1 = 0.8349 | 1072.2 ± 8 | 132.29 ± 40
263.15 K, w1 = 0.9277 | 1073.2 ± 8 | 206.53 ± 62
263.15 K, w1 = 1 | 1072.3 ± 8 | 289.5 ± 87
268.15 K, w1 = 0.2226 | 1022.1 ± 8 | 5.908 ± 1.8
268.15 K, w1 = 0.334 | 1033.9 ± 8 | 9.252 ± 2.8
268.15 K, w1 = 0.4453 | 1045.7 ± 8 | 15.12 ± 4.5
268.15 K, w1 = 0.501 | 1050.3 ± 8 | 18.81 ± 5.6
268.15 K, w1 = 0.6123 | 1059.5 ± 8 | 32.82 ± 9.8
268.15 K, w1 = 0.7236 | 1065.6 ± 8 | 55.72 ± 17
268.15 K, w1 = 0.8349 | 1069.3 ± 8 | 95.75 ± 29
268.15 K, w1 = 0.9277 | 1070.1 ± 8 | 149.24 ± 45
268.15 K, w1 = 1 | 1069 ± 8 | 207.88 ± 62
273.15 K, w1 = 0.1113 | 1009.7 ± 8 | 2.894 ± 0.87
273.15 K, w1 = 0.2226 | 1021.3 ± 8 | 4.695 ± 1.4
273.15 K, w1 = 0.334 | 1032.5 ± 8 | 7.257 ± 2.2
273.15 K, w1 = 0.4453 | 1043.7 ± 8 | 11.74 ± 3.5
273.15 K, w1 = 0.501 | 1048.1 ± 8 | 14.52 ± 4.4
273.15 K, w1 = 0.6123 | 1056.9 ± 8 | 24.88 ± 7.5
273.15 K, w1 = 0.7236 | 1062.7 ± 8 | 41.58 ± 12
273.15 K, w1 = 0.8349 | 1066.3 ± 8 | 70.71 ± 21
273.15 K, w1 = 0.9277 | 1067.1 ± 8 | 109.69 ± 33
273.15 K, w1 = 1 | 1065.9 ± 8 | 152.75 ± 46
283.15 K, w1 = 0.1113 | 1008.8 ± 8 | 2.055 ± 0.62
283.15 K, w1 = 0.2226 | 1019.2 ± 8 | 3.165 ± 0.95
283.15 K, w1 = 0.334 | 1029.2 ± 8 | 4.748 ± 1.4
283.15 K, w1 = 0.4453 | 1039.3 ± 8 | 7.451 ± 2.2
283.15 K, w1 = 0.501 | 1043.3 ± 8 | 9.1 ± 2.7
283.15 K, w1 = 0.6123 | 1051.4 ± 8 | 15.1 ± 4.5
283.15 K, w1 = 0.7236 | 1056.8 ± 8 | 24.57 ± 7.4
283.15 K, w1 = 0.8349 | 1060.2 ± 8 | 40.76 ± 12
283.15 K, w1 = 0.9277 | 1061 ± 8 | 62.32 ± 19
283.15 K, w1 = 1 | 1059.8 ± 8 | 86.48 ± 26
293.15 K, w1 = 0.1113 | 1006.7 ± 8 | 1.529 ± 0.46
293.15 K, w1 = 0.2226 | 1016.3 ± 8 | 2.251 ± 0.68
293.15 K, w1 = 0.334 | 1025.4 ± 8 | 3.318 ± 1
293.15 K, w1 = 0.4453 | 1034.5 ± 8 | 5.035 ± 1.5
293.15 K, w1 = 0.501 | 1038.3 ± 8 | 6.074 ± 1.8
293.15 K, w1 = 0.6123 | 1045.7 ± 8 | 9.77 ± 2.9
293.15 K, w1 = 0.7236 | 1050.9 ± 8 | 15.48 ± 4.6
293.15 K, w1 = 0.8349 | 1054 ± 8 | 25 ± 7.5
293.15 K, w1 = 0.9277 | 1054.7 ± 8 | 37.6 ± 11
293.15 K, w1 = 1 | 1053.6 ± 8 | 52.01 ± 16
303.15 K, w1 = 0.1113 | 1004.1 ± 8 | 1.189 ± 0.36
303.15 K, w1 = 0.2226 | 1012.9 ± 8 | 1.689 ± 0.51
303.15 K, w1 = 0.334 | 1021.1 ± 8 | 2.421 ± 0.73
303.15 K, w1 = 0.4453 | 1029.5 ± 8 | 3.585 ± 1.1
303.15 K, w1 = 0.501 | 1033 ± 8 | 4.306 ± 1.3
303.15 K, w1 = 0.6123 | 1039.9 ± 8 | 6.724 ± 2
303.15 K, w1 = 0.7236 | 1044.8 ± 8 | 10.32 ± 3.1
303.15 K, w1 = 0.8349 | 1047.8 ± 8 | 16.26 ± 4.9
303.15 K, w1 = 0.9277 | 1048.5 ± 8 | 24.03 ± 7.2
303.15 K, w1 = 1 | 1047.4 ± 8 | 32.92 ± 9.9
313.15 K, w1 = 0.1113 | 1000.4 ± 8 | 0.9825 ± 0.29
313.15 K, w1 = 0.2226 | 1008.3 ± 8 | 1.332 ± 0.4
313.15 K, w1 = 0.334 | 1016.3 ± 8 | 1.857 ± 0.56
313.15 K, w1 = 0.4453 | 1023.9 ± 8 | 2.659 ± 0.8
313.15 K, w1 = 0.501 | 1027.3 ± 8 | 3.148 ± 0.94
313.15 K, w1 = 0.6123 | 1033.8 ± 8 | 4.725 ± 1.4
313.15 K, w1 = 0.7236 | 1038.6 ± 8 | 7.184 ± 2.2
313.15 K, w1 = 0.8349 | 1041.5 ± 8 | 11.05 ± 3.3
313.15 K, w1 = 0.9277 | 1042.2 ± 8 | 16.04 ± 4.8
313.15 K, w1 = 1 | 1041.1 ± 8 | 21.79 ± 6.5
323.15 K, w1 = 0.1113 | 996.2 ± 8 | 0.7887 ± 0.24
323.15 K, w1 = 0.2226 | 1003.5 ± 8 | 1.076 ± 0.32
323.15 K, w1 = 0.334 | 1010.8 ± 8 | 1.465 ± 0.44
323.15 K, w1 = 0.4453 | 1018.1 ± 8 | 2.051 ± 0.62
323.15 K, w1 = 0.501 | 1021.3 ± 8 | 2.401 ± 0.72
323.15 K, w1 = 0.6123 | 1027.4 ± 8 | 3.522 ± 1.1
323.15 K, w1 = 0.7236 | 1032.1 ± 8 | 5.219 ± 1.6
323.15 K, w1 = 0.8349 | 1035 ± 8 | 7.801 ± 2.3
323.15 K, w1 = 0.9277 | 1035.8 ± 8 | 11.15 ± 3.3
323.15 K, w1 = 1 | 1034.8 ± 8 | 15 ± 4.5
333.15 K, w1 = 0.1113 | 991.1 ± 8 | 0.6769 ± 0.2
333.15 K, w1 = 0.2226 | 998.3 ± 8 | 0.8845 ± 0.27
333.15 K, w1 = 0.334 | 1005.2 ± 8 | 1.194 ± 0.36
333.15 K, w1 = 0.4453 | 1011.8 ± 8 | 1.641 ± 0.49
333.15 K, w1 = 0.501 | 1014.8 ± 8 | 1.885 ± 0.57
333.15 K, w1 = 0.6123 | 1020.9 ± 8 | 2.698 ± 0.81
333.15 K, w1 = 0.7236 | 1025.4 ± 8 | 3.9 ± 1.2
333.15 K, w1 = 0.8349 | 1028.3 ± 8 | 5.713 ± 1.7
333.15 K, w1 = 0.9277 | 1029.3 ± 8 | 8.023 ± 2.4
333.15 K, w1 = 1 | 1028.4 ± 8 | 10.72 ± 3.2
343.15 K, w1 = 0.1113 | 985.3 ± 8 | 0.5651 ± 0.17
343.15 K, w1 = 0.2226 | 992.4 ± 8 | 0.7245 ± 0.22
343.15 K, w1 = 0.334 | 999.3 ± 8 | 0.9821 ± 0.29
343.15 K, w1 = 0.4453 | 1005.3 ± 8 | 1.301 ± 0.39
343.15 K, w1 = 0.501 | 1008.4 ± 8 | 1.512 ± 0.45
343.15 K, w1 = 0.6123 | 1014.1 ± 8 | 2.123 ± 0.64
343.15 K, w1 = 0.7236 | 1018.5 ± 8 | 3.01 ± 0.9
343.15 K, w1 = 0.8349 | 1021.5 ± 8 | 4.303 ± 1.3
343.15 K, w1 = 0.9277 | 1022.6 ± 8 | 5.933 ± 1.8
343.15 K, w1 = 1 | 1021.9 ± 8 | 7.855 ± 2.4
353.15 K, w1 = 0.1113 | 978.6 ± 8 | 0.4871 ± 0.15
353.15 K, w1 = 0.2226 | 986.3 ± 8 | 0.6668 ± 0.2
353.15 K, w1 = 0.334 | 992.6 ± 8 | 0.8548 ± 0.26
353.15 K, w1 = 0.4453 | 998.5 ± 8 | 1.09 ± 0.33
353.15 K, w1 = 0.501 | 1001.2 ± 8 | 1.21 ± 0.36
353.15 K, w1 = 0.6123 | 1006.8 ± 8 | 1.731 ± 0.52
353.15 K, w1 = 0.7236 | 1011.7 ± 8 | 2.423 ± 0.73
353.15 K, w1 = 0.8349 | 1014.4 ± 8 | 3.317 ± 1
353.15 K, w1 = 0.9277 | 1015.8 ± 8 | 4.515 ± 1.4
353.15 K, w1 = 1 | 1015.3 ± 8 | 5.916 ± 1.8
